This note sets out measurements from the OPERA property sets (Mansouri et al. 2018).

As to `C[C@@H]1C[C@H]2[C@@H]3CCC4=CC(=O)C=C[C@]4(C)[C@@]3(F)[C@@H](O)C[C@]2(C)[C@H]1C(=O)CO`, the melting point (as a rule, the temperature, or range, at which the solid turns liquid) amounted to 217 °C.

Molecule `NS(=O)(=O)c1ccc(CCCO)cc1` came in with a melting point of 95.5 °C.

`CN(C)C(=O)C(c1ccccc1)c1ccccc1` yielded a log10 Koc (L/kg) of 2.32, a log10 vapour pressure (mmHg) of -7.52 and a melting point of 135 °C.

As for `O=C(O)C(Cl)=C(Cl)Cl`, the boiling point (in general, the temperature of boiling at a given pressure) turned out to be 222 °C and the melting point came to 76 °C.

In the case of `Cn1c(=O)c2c(ncn2CN2CCOCC2)n(C)c1=O`, the melting point was 177 °C.

The molecule `O=C(OC1CCCCC1)c1ccccc1` yielded a boiling point of 285 °C.

`CCCCOCCOC(=O)COc1ccc(Cl)cc1Cl` registered a log10 vapour pressure (mmHg) of -5.35.

In the case of `Cc1cccc(N(C)C)c1`, the boiling point is 212 °C.

Molecule `CNC(=O)N(C)c1nnc(C(F)(F)F)s1` displayed a melting point of 136 °C.

With `Nc1ccc(Cl)cc1C(=O)c1ccccc1`, the melting point turned out to be 99 °C.

As to `COC(=O)c1cc(Oc2ccc(Cl)cc2Cl)ccc1[N+](=O)[O-]`, the log10 Koc (L/kg) is 4, the log10 vapour pressure (mmHg) was -7 and the melting point amounted to 85 °C.

`O=C(NN=Cc1ccc([N+](=O)[O-])o1)c1ccc(O)cc1` showed a melting point of 298 °C.

For `CCOCCN`, the boiling point amounted to 108 °C.

`C=C(C)C(C)(C)CC` yielded a boiling point of 108 °C, a log10 vapour pressure (mmHg) of 1.48 and a melting point of -69 °C.

For `CN(C(O)=NC(C)(C)c1ccccc1)c1ccccc1`, the melting point was 72 °C.

In turn, `CCCOC(=O)C(O)C(O)C(=O)OCCC` (configuration not stated) gave a boiling point of 303 °C.

Take `CC(C)CN`: the boiling point is 68.5 °C, the log10 vapour pressure (mmHg) was 2.14, the melting point was -85 °C and the ready biodegradability entry is recorded as “readily biodegradable”.

In turn, `CCCCOC(=O)C(=O)[C@H]1[C@H](C)C[C@H]2[C@@H]3C[C@H](F)C4=CC(=O)C=C[C@]4(C)[C@H]3[C@@H](O)C[C@@]21C` returned a melting point of 195 °C.

Take `Cn1c(=O)c2c(ncn2CCO)n(C)c1=O`: the melting point was found to be 158 °C.

Turning to `COc1cc(C)cc(OC)c1`, the boiling point is 244 °C.

Turning to `ClCCOCOCCCl`, the boiling point came out at 218 °C, the log10 Koc (L/kg) is 1.79, the log10 vapour pressure (mmHg) was -0.879 and the melting point is -32 °C.

On to `COc1cc(NS(=O)(=O)c2ccc(N)cc2)nc(OC)n1`, for which the melting point is 204 °C.

The molecule `ClCCC(Cl)(Cl)Cl` gave a boiling point of 157 °C.

For `COc1ccc(N)c(OC)c1`, the melting point worked out at 33.5 °C.

In turn, `CC(C)(C)OC(=O)CCl` gave a boiling point of 150 °C.

In turn, `N#CO` had a log10 vapour pressure (mmHg) of 2.91 and a melting point of -86 °C.

In turn, `CCN(CC)CCCC(C)N` (configuration not stated) returned a boiling point of 201 °C.

In turn, `O=[N+]([O-])c1ccc(-c2ccccc2[N+](=O)[O-])cc1` displayed a melting point of 93.5 °C.

As to `Nc1cccc(Oc2ccccc2)c1`, the boiling point was 315 °C and the melting point was determined as 37 °C.

As to `Clc1ccccc1C=C1c2ccccc2-c2ccccc21`, the melting point was found to be 69.5 °C.

As for `CC1(OO)CCC2CC1C2(C)C` (configuration not stated), the ready biodegradability result is reported as “not readily biodegradable”.

In the case of `COc1cc(OC)nc(Sc2cccc(Cl)c2C(=O)O)n1`, the melting point stood at 150 °C.

Turning to `C#CC(C)(O)CC` (configuration not stated), the boiling point is 120 °C, the log10 vapour pressure (mmHg) was 0.72, the melting point was 30.5 °C and the ready biodegradability entry is “readily biodegradable”.

Consider `CC(C)(C)CCCl`, for which the boiling point was found to be 115 °C.

In turn, `S=C(Nc1cccc2ccccc12)Nc1cccc2ccccc12` had a melting point of 208 °C.

`Cc1c(F)c(F)c(COC(=O)C2C(/C=C(\Cl)C(F)(F)F)C2(C)C)c(F)c1F` (configuration not stated): the log10 vapour pressure (mmHg) was -4.22 and the melting point amounted to 44.6 °C.

`FCOC(F)(F)C(F)F` came in with a boiling point of 53.6 °C and a log10 vapour pressure (mmHg) of 2.37.

In the case of `CCCCOC(=O)CCC(=O)OCCCC`, the boiling point was 274 °C and the melting point was -29.2 °C.

Take `O=S(=O)(O)c1cccc(S(=O)(=O)O)c1`: the ready biodegradability result was “not readily biodegradable”.

In turn, `CCSCC(C)C` returned a boiling point of 134 °C.

For the molecule `Cc1c(-c2ccccc2)[nH]c2ccccc12`, the melting point stood at 91.5 °C.

Molecule `CCOC(CCl)OCC` showed a boiling point of 157 °C.

For the molecule `O=C1C=CC(=O)c2c(Cl)cccc21`, the melting point was 163 °C.

`CC(CCc1ccccc1)NC(C)C(O)c1ccc(O)cc1` (configuration not stated): the melting point came out at 112 °C.

Molecule `C[C@]12C=CC(=O)C=C1CC[C@@H]1[C@@H]2[C@@H](O)C[C@@]2(C)[C@H]1CC[C@]2(O)C(=O)COC(=O)CCCc1ccc(N(CCCl)CCCl)cc1` showed a melting point of 164 °C.

For the molecule `CCCCCCCCCCCO`, the boiling point turned out to be 243 °C, the log10 vapour pressure (mmHg) is -2.53, the melting point stood at 19 °C and the ready biodegradability result was “readily biodegradable”.

`C=C(C)C(C)=O` showed a boiling point of 98 °C and a melting point of -54 °C.

For `CC(C)(C)NC(=O)COC(=O)c1ccccc1`, the melting point stood at 112 °C.

In the case of `Cc1ccc(S(=O)O)cc1`, the melting point was determined as 86.5 °C.

The molecule `COc1ccc2c(c1OC)CN(C)CCc1cc3c(cc1C(=O)C2)OCO3` returned a melting point of 160 °C.

`OCC(F)(F)C(F)(F)C(F)(F)C(F)(F)C(F)(F)C(F)(F)C(F)(F)C(F)F` yielded a melting point of 56 °C.

Molecule `NC(=O)C(Cl)(Cl)Cl` came in with a boiling point of 240 °C, a log10 Koc (L/kg) of 0.99 and a melting point of 142 °C.

For the molecule `Cc1cnc(C(=O)O)c[n+]1[O-]`, the melting point is 178 °C.

Turning to `CCCCCCCCCCCCCC(=O)O`, the boiling point was 326 °C, the log10 vapour pressure (mmHg) is -5.85 and the melting point came out at 53.9 °C.

Turning to `CCOC(=O)CCN(Cc1ccccc1)SN(C)C(=O)O/N=C(/C)SC`, the log10 vapour pressure (mmHg) is -7.46 and the melting point amounted to 47 °C.

For the molecule `CCCCCCCCOC(C)=O`, the boiling point stood at 210 °C and the melting point was -38.5 °C.
